Measurements as given in ChEMBL document CHEMBL5032527, “N-(4-acetamidophenyl)-5-acetylfuran-2-carboxamide as a novel orally available diuretic that targets urea transporters with improved PD and PK properties” (Eur J Med Chem, 2021).
The source made the active and inactive calls. No cut-off for these calls is given here.

How the values were obtained:
[1] = biological target: T1, Urea transporter 1 (Rattus norvegicus, UniProt P97689); test: Inhibition of rat UT-B expressed in MDCK cells; assay type: cell-based
T1 sequence (P97689 whole entry): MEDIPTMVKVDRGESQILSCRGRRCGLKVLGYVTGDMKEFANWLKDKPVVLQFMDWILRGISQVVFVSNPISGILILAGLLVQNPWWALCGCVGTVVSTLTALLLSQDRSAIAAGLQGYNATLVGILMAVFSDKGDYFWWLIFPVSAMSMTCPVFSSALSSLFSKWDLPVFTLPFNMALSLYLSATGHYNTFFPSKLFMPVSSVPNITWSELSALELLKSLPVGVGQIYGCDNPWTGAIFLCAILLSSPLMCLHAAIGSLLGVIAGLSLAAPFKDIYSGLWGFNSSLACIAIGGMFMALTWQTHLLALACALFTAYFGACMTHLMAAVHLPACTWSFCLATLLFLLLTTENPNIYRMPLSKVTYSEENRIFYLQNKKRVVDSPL

[2] = biological target: T2, Urea transporter 1 (Mus musculus, UniProt Q8VHL0); test: Inhibition of mouse UT-B expressed in MDCK cells; assay type: cell-based
T2 sequence (Q8VHL0 whole entry): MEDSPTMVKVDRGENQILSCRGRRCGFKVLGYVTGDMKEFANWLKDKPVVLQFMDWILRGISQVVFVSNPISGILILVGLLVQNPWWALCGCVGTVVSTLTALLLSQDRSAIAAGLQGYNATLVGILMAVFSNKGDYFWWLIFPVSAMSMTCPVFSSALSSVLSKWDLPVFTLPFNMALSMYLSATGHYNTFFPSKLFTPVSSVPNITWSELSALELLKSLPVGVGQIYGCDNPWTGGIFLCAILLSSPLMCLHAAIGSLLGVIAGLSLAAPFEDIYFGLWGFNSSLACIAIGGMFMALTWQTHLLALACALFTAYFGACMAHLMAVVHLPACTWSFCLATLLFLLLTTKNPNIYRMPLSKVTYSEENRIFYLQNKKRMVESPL

[3] = test system: Rattus norvegicus; test: Diuretic activity in Sprague-Dawley rat assessed as increase in urine volume at 100 mg/kg, IG; assay type: functional, organism-based; conditions: TDE = time-dependent effect
[4] = test system: MDCK; test: Inhibition of rat UT-A1 expressed in MDCK cells assessed as inhibition of urea transport at 8 uM; assay type: cell-based
[5] = test system: Mus musculus; test: Diuretic activity in mouse assessed as increase in urine output at 100 mg/kg, IG measured after 7 days; assay type: functional, organism-based; conditions: time 7.0 day
[6] = species: Rattus norvegicus; test: Diuretic activity in IG treated Sprague-Dawley rat assessed as reduction in urine osmolality; assay type: functional
[7] = Metabolic stability in Sprague-Dawley rat plasma assessed as percentage of compound remaining after 240 mins by LC-MS/MS analysis; assay type: ADME, cell-free; conditions: read-out: Stability
[8] = test system: Rattus norvegicus; test: Diuretic activity in Sprague-Dawley rat assessed as increase in urine volume at 100 mg/kg, IG after 2 hrs; assay type: functional, organism-based
[9] = test system: MDCK; test: Cytotoxicity against MDCK cells assessed as reduction in cell viability at 400 uM measured by CCK-8 assay; assay type: cell-based, Canis lupus familiaris; conditions: dog
[10] = Metabolic stability in Sprague-Dawley rat liver microsomes assessed as percentage of compound remaining after 240 mins by LC-MS/MS analysis; assay type: ADME, Microsome; conditions: read-out: Stability
[11] = biological target: T3, Urea transporter 1 (Rattus norvegicus) (UniProt P97689); test: Inhibition of rat UT-B expressed in MDCK cells assessed as inhibition of urea transport at 8 uM; assay type: cell-based
T3 sequence (whole entry): T1 sequence (P97689 whole entry)

[12] = Bioavailability in Sprague-Dawley rat at 100 mg/kg, po by LC-MS/MS analysis; assay type: ADME, organism-based; conditions: in vivo
[13] = MRT in Sprague-Dawley rat at 100 mg/kg, po by LC-MS/MS analysis; assay type: ADME, organism-based; conditions: in vivo
[14] = AUC (0 to t) in Sprague-Dawley rat at 100 mg/kg, po by LC-MS/MS analysis; assay type: ADME, organism-based; design: dose 100 mg/kg; conditions: in vivo
[15] = biological target: Voltage-gated inwardly rectifying potassium channel KCNH2 (Homo sapiens, UniProt Q12809); test: Inhibition of hERG; conditions: read-out: INH
Chain of Voltage-gated inwardly rectifying potassium channel KCNH2 (Q12809 whole entry): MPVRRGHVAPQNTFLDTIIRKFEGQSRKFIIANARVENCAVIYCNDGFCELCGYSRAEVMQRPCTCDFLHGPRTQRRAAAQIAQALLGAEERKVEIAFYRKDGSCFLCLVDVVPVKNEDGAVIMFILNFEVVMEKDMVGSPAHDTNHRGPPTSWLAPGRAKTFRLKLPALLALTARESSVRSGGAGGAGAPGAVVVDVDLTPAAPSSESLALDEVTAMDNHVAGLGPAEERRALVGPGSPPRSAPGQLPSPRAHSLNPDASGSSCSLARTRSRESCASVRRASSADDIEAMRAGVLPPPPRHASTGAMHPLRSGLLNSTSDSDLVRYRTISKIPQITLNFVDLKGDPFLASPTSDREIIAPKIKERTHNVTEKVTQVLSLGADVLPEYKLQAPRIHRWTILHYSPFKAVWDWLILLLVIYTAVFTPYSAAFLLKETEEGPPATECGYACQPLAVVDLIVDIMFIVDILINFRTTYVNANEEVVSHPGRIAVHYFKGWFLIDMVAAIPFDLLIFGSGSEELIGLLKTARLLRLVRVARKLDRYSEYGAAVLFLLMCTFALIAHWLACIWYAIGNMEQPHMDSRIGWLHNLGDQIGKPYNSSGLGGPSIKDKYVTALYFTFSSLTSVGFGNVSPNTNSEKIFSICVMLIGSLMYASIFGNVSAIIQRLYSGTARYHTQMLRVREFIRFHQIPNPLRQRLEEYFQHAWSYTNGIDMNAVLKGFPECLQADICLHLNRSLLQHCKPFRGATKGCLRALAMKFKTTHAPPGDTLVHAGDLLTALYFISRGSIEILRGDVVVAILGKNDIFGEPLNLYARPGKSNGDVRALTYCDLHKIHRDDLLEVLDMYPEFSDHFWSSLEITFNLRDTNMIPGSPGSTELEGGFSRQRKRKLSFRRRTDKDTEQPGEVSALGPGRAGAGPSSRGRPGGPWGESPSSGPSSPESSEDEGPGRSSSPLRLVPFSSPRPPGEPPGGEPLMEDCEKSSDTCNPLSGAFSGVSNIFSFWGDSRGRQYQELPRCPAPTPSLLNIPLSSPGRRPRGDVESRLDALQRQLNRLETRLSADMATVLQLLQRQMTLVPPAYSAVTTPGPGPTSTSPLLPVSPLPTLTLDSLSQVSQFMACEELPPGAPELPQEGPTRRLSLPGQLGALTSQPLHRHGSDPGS

[16] = species: Mus musculus; test: Diuretic activity in mouse assessed as reduction in urine osmolality; assay type: functional, organism-based
[17] = species: Mus musculus; test: Diuretic activity in mouse assessed as increase in urine volume; assay type: functional, organism-based
[18] = Cmax in Sprague-Dawley rat at 100 mg/kg, po by LC-MS/MS analysis; assay type: ADME, organism-based; design: route oral, dose 100 mg/kg; conditions: in vivo
[19] = test system: Rattus norvegicus; test: Diuretic activity in Sprague-Dawley rat assessed as increase in urine volume at 50 mg/kg, IG after 2 hrs; assay type: functional, organism-based
[20] = in vivo; conditions: Sprague-Dawley, rat, po, 100 mg/kg
[21] = test system: MDCK; test: Cytotoxicity against MDCK cells assessed as reduction in cell viability at 80 uM measured by CCK-8 assay; assay type: cell-based, Canis lupus familiaris; conditions: dog
[22] = AUC (0 to infinity) in Sprague-Dawley rat at 100 mg/kg, po by LC-MS/MS analysis; assay type: ADME, organism-based; design: route oral, time infinity, dose 100 mg/kg; conditions: in vivo
[23] = Half life in Sprague-Dawley rat at 100 mg/kg, po by LC-MS/MS analysis; assay type: ADME, organism-based; conditions: in vivo
[24] = test system: Rattus norvegicus; test: Diuretic activity in Sprague-Dawley rat assessed as increase in urine volume at 100 mg/kg, IG after 4 hrs; assay type: functional, organism-based

| SMILES | IC50 [1] [µM] | IC50 [2] [µM] | further results |
| --- | --- | --- | --- |
| O=C(Nc1ccc(NS(=O)(=O)c2ccccc2Cl)cc1)c1ccc([N+](=O)[O-])o1 | 0.53 | 1.05 |  |
| CC(=O)Nc1ccc(NC(=O)c2ccc(C(C)=O)o2)cc1 |  |  | Activity [3]: Tde; inhibition [4]: 84.4%; Activity [5]: Active; fold change (FC) [6]: 10; remaining at 4 h [7]: 20%; Activity [8]: Active; Activity [9]: Toxic; remaining at 4 h [10]: 20%; inhibition [11]: 89.6%; bioavailability [12]: 15.8%; MRT [13]: 5.45 h; AUC(0-t) [14]: 6840 ng·h/mL; IC50 [15]: > 100 µM; Activity [16]: Active; Activity [17]: Active; Cmax [18]: 1240 ng/mL; Activity [19]: Active; Tmax [20]: 0.21 h |
| CC(=O)c1ccc(C(=O)Nc2ccc(NS(=O)(=O)c3ccccc3)cc2)o1 | 0.15 | 0.16 | Activity [21]: Toxic |
| O=C(Nc1ccc(NS(=O)(=O)c2ccccc2F)cc1)c1ccc([N+](=O)[O-])o1 | 1.04 | 1.68 |  |
| O=C1CCc2cc(NC(=O)c3ccc([N+](=O)[O-])o3)ccc2N1 | 1.06 | 2.19 |  |
| CC(=O)Nc1ccc(NC(=O)c2ccc(C(=O)c3ccccc3)o2)cc1 | > 10 | 9.85 |  |
| O=C1Cc2cc(NC(=O)c3ccc([N+](=O)[O-])o3)ccc2N1 | 3.17 | 4.99 |  |
| O=C(Nc1ccc(NS(=O)(=O)c2cccc(F)c2)cc1)c1ccc([N+](=O)[O-])o1 | 0.66 | 1.32 |  |
| O=C(Nc1ccc(NS(=O)(=O)c2cccc(C(F)(F)F)c2)cc1)c1ccc([N+](=O)[O-])o1 | 1.66 | 2.22 |  |
| O=C(Nc1ccc(NS(=O)(=O)c2cccc(Cl)c2)cc1)c1ccc([N+](=O)[O-])o1 | 0.75 | 1.01 |  |
| O=C(Nc1ccc(NS(=O)(=O)c2cccc(Br)c2)cc1)c1ccc([N+](=O)[O-])o1 | 0.81 | 1.6 |  |
| O=C(Nc1ccc(NS(=O)(=O)c2ccc(C(F)(F)F)cc2)cc1)c1ccc([N+](=O)[O-])o1 | 2.77 | 3.47 |  |
| O=C(Nc1ccc(NS(=O)(=O)c2ccc(Cl)cc2)cc1)c1ccc([N+](=O)[O-])o1 | 0.43 | 0.69 |  |
| CCS(=O)(=O)Nc1ccc(NC(=O)c2ccc([N+](=O)[O-])o2)cc1 | 0.28 | 0.84 |  |
| O=C(Nc1ccc(NS(=O)(=O)c2ccccc2)cc1)c1ccc([N+](=O)[O-])o1 | 0.11 | 0.24 |  |
| O=C(Nc1ccc(NS(=O)(=O)c2ccc(F)cc2)cc1)c1ccc([N+](=O)[O-])o1 | 0.64 | 1.31 |  |
| O=C(Nc1cccc2ccc(=O)[nH]c12)c1ccc([N+](=O)[O-])o1 | 6.05 | > 10 |  |
| O=C(Nc1cccc2[nH]c(=O)ccc12)c1ccc([N+](=O)[O-])o1 | > 10 | > 10 |  |
| O=C(Nc1ccc(NS(=O)(=O)c2ccccc2C(F)(F)F)cc1)c1ccc([N+](=O)[O-])o1 | 0.87 | 1.49 |  |
| CC(=O)Nc1ccc(NC(=O)c2ccc(C(F)F)o2)cc1 | > 10 | > 10 |  |
| CC(=O)Nc1ccc(NC(=O)c2ccc(C(=O)C(C)(C)C)o2)cc1 | > 10 | > 10 |  |
| CC(=O)Nc1ccc(NC(=O)c2ccc([N+](=O)[O-])o2)cc1 | 1.41 |  | inhibition [4]: 102%; remaining at 4 h [7]: 20%; remaining at 4 h [10]: 20%; bioavailability [12]: 4.38%; MRT [13]: 1.51 h; AUC(0-t) [14]: 78.1 ng·h/mL; AUC(0-inf) [22]: 82.5 ng·h/mL; t1/2 [23]: 0.93 h; Cmax [18]: 74.3 ng/mL; Activity [24]: inactive |
| CC(=O)Nc1ccc(NC(=O)c2ccc(F)o2)cc1 | 6.47 | > 10 |  |
| O=C(Nc1ccc2ccc(=O)[nH]c2c1)c1ccc([N+](=O)[O-])o1 | 0.6 | 1.5 |  |
| O=C(Nc1ccc2[nH]c(=O)ccc2c1)c1ccc([N+](=O)[O-])o1 | 1.23 | 2.34 |  |
